In the NIST ThermoML archive (doi:10.1021/je4004405):

Experiments:
[1] = 298.15 K, 101.33 kPa, Liquid
[2] = wn = mass fraction of the nth substance listed; conditions: 101 kPa, Liquid; for viscosity: Capillary tube (Ostwald / Ubbelohde) method; for mass density: Pycnometric method

CCCCOCCO [2-butoxyethan-1-ol]
[1]
Conditions	mass density [kg/m3]	viscosity [mPa·s]
Capillary tube (Ostwald / Ubbelohde) method	–	2.782
Pycnometric method	896.16	–

CCCCOCCO [2-butoxyethan-1-ol] + O
[2]
Conditions	mass density, 298.15 K [kg/m3]	mass density, 303.15 K [kg/m3]	mass density, 308.15 K [kg/m3]	mass density, 313.15 K [kg/m3]	viscosity, 298.15 K [mPa·s]	viscosity, 303.15 K [mPa·s]	viscosity, 308.15 K [mPa·s]	viscosity, 313.15 K [mPa·s]
w1 = 0.2	986.46	982.92	980.38	977.64	1.849	1.622	1.465	1.302
w1 = 0.4	967.1	964.31	961.45	958.48	2.998	2.635	2.334	2.054
w1 = 0.6	948.1	944.74	941.59	937.57	3.918	3.394	2.921	2.539
w1 = 1	896.16	892.74	888.88	884.29	2.782	2.499	2.206	1.946
